# In ChEMBL document CHEMBL3608307, “(±)-Acortatarinowins A-F, Norlignan, Neolignan, and Lignan Enantiomers from Acorus tatarinowii” (J Nat Prod, 2015):
# Tested on: RAW264.7
# Test: Inhibition of LPS-induced nitric oxide production in mouse RAW264.7 cells after 24 hrs by Griess assay
# Format: functional, cell-based
# Details: RAW264.7, 24 h
row,Compound,IC50
1,COc1cc(OC)c([C@H]2[C@@H](C)[C@@H](c3cc(OC)c(OC)cc3OC)O[C@@H]2C)cc1OC,> 50 µM
2,COC(=O)c1ccc(O[C@@H](C)[C@@H](O)c2cc(OC)c(OC)c(OC)c2)c(OC)c1,29.5 µM
3,COc1cc(OC)c([C@@H]2[C@H](C)[C@H](c3cc(OC)c(OC)cc3OC)O[C@H]2C)cc1OC,> 50 µM
4,COc1cc(OC)cc([C@H]2OC[C@H]3[C@@H]2CO[C@@H]3c2cc(OC)c(OC)c(OC)c2)c1,> 50 µM
5,COc1cc(OC)cc([C@@H]2OC[C@@H]3[C@H]2CO[C@H]3c2cc(OC)c(OC)c(OC)c2)c1,26.6 µM
6,COc1cc([C@@H]2O[C@@H](c3ccc(O)c(OC)c3)[C@H](C)[C@H]2C)ccc1O,37.8 µM
7,COc1cc([C@H]2O[C@H](c3ccc(O)c(OC)c3)[C@@H](C)[C@@H]2C)ccc1O,38 µM
8,COC(=O)c1ccc(O[C@@H](C)[C@@H](O)c2ccc(OC)c(OC)c2)c(OC)c1 (relative stereo),23.3 µM
9,COc1ccc([C@H]2OC[C@H]3[C@@H]2CO[C@@H]3c2ccc(OC)c(OC)c2)cc1OC [(+)-EUDESMIN],> 50 µM
10,C[C@@H]1C[C@H]2[C@@H]3CCC4=CC(=O)C=C[C@]4(C)[C@@]3(F)[C@@H](O)C[C@]2(C)[C@@]1(O)C(=O)CO [DEXAMETHASONE],0.8 µM
11,COc1ccc([C@@H]2OC[C@@H]3[C@H]2CO[C@H]3c2ccc(OC)c(OC)c2)cc1OC [EUDESMINE],> 50 µM
